Assay results as given in publication PMC7904875, “Identification and Functional Analysis of SlitOBP11 From Spodoptera litura” (Frontiers in Physiology, 2021).

Molecular target: T1, SlitOBP11 (Spodoptera litura, UniProt A0A9J7E9A4)
T1 construct: gene LOC111356549; mature protein, predicted 23-residue signal peptide removed; ORF 465 bp, given as 155 aa; pET32a(+) (BamHI/HindIII), E. coli BL21(DE3); Ni-NTA purified, tag cleaved with enterokinase
T1 sequence (A0A9J7E9A4 24-154): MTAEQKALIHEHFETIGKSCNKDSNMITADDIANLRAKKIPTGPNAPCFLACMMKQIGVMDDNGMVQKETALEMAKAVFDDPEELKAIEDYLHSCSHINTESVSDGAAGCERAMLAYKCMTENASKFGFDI
Experiment: fluorescence titration, Scatchard
Assay type: binding
Conditions: read-out: dissociation constant

In the case of `c1ccc(Nc2cccc3ccccc23)cc1` [1-NPN, 1-N-Phenyl-naphthylamine], the Kd is reported as 8.09 ± 0.26 µM.

Molecular target: T1, SlitOBP11
Experiment: competitive displacement of 1-NPN fluorescence
Assay type: binding
Conditions: not given
Source text: competitive displacement of 1-NPN fluorescence on SlitOBP11

With `O=CCc1ccccc1` [Phenylacetaldehyde] the IC50 was 43.4 ± 10.1 µM.

Same assay, conditions: read-out: Ki (μmol L^-1)^∗

Point of comparison: `CC(=O)OCCc1ccccc1` [Phenethyl acetate], Ki 43.1 ± 0.488 µM. Against it:
- CC/C=C/C=C\CCCCCCCCOC(C)=O [(Z, E)-9,11-tetradecadienyl acetate, (Z,E)-9,11-Tetradecadienyl acetate] — 3.1-fold lower, 13.9 ± 1.44 µM
- O=CCc1ccccc1 [Phenylacetaldehyde] — within error, 35.8 ± 9.76 µM
- CC/C=C/CCCCCCCCCCOC(C)=O [(E)-11-tetradecenly acetate, (E)-11-Tetradecenyl acetate] — 3.2-fold lower, 13.5 ± 0.479 µM
- CCCC/C=C\CCCCCCCCOC(C)=O [(Z)-9-tetradecenyl acetate, (Z)-9-Tetradecenyl acetate] — 4.3-fold lower, 9.97 ± 0.492 µM
- C/C=C/C/C=C\CCCCCCCCOC(C)=O [(Z, E)-9,12-tetradecadienyl acetate, (Z,E)-9,12-Tetradecadienyl acetate] — 3-fold lower, 14.4 ± 0.317 µM

Molecular target: T1, SlitOBP11
Experiment: competitive displacement of 1-NPN fluorescence
Assay type: binding
Conditions: not given
Remark: another data set of the same source

Point of comparison: `CC/C=C/C=C\CCCCCCCCOC(C)=O` [(Z, E)-9,11-tetradecadienyl acetate, (Z,E)-9,11-Tetradecadienyl acetate], IC50 15.6 ± 1.41 µM. Against it:
- CCCCCCCCCCCCCC [Tetradecane] — higher, > 50 µM
- CCCCC(C)=O [2-hexanone] — higher, > 50 µM
- CCCCCCCCCCCC [Dodecane] — higher, > 50 µM
- CC(C)CCC(=O)O [4-methylpentanoic acid] — higher, > 50 µM
- CC(=O)OCCc1ccccc1 [Phenethyl acetate] — 3.1-fold higher, 48.6 ± 0.52 µM
- c1ccc2[nH]ccc2c1 [Indole] — higher, > 50 µM
- CC(=O)OCc1ccccc1 [Benzyl acetate] — higher, > 50 µM
- CC(=O)CC/C=C(\C)CCC=C(C)C [Geranylacetone] — higher, > 50 µM
- CC1=CCC(C(C)C)C=C1 (stereo not drawn) [Alpha-phellandrene] — higher, > 50 µM
- CC1=CCCC(C)(C)C1/C=C/C(C)O (stereo not drawn) [Alpha- ionol] — higher, > 50 µM
- C=CC(C)(O)CC/C=C(\C)CCC=C(C)C (stereo not drawn) [Trans-nerolidol] — higher, > 50 µM
- CCCCCCCCCCCCCCCCCC [N-octadecane] — higher, > 50 µM
- C=C(C)[C@H]1CC=C(C)C(=O)C1 [(+)-Carvone] — higher, > 50 µM
- CC(=O)O [Acetic acid] — higher, > 50 µM
- CCCCCCCCCCCCC [Tridecane] — higher, > 50 µM
- CC(C)CC(=O)O [3-methylbutyric acid] — higher, > 50 µM
- CC(=O)OC/C=C(\C)CCC=C(C)C [Geranyl acetate] — higher, > 50 µM
- COC(=O)c1ccccc1O [Methyl salicylate] — higher, > 50 µM
- C=C(C)[C@H]1CC=C(C)CC1 [(R)-(+)-limonene] — higher, > 50 µM
- CCCCCCCC=O [Octyl aldehyde] — higher, > 50 µM
- OCCc1ccccc1 [Phenethyl alcohol] — higher, > 50 µM
- CCCC(=O)CC [3-hexanone] — higher, > 50 µM
- CC(C)C(=O)O [Isobutyric acid] — higher, > 50 µM
- CCCCCC(=O)O [Hexanoic acid] — higher, > 50 µM
- CCc1ccccc1 [Ethylbenzene] — higher, > 50 µM
- CCCCC(=O)O [Pentanoic acid] — higher, > 50 µM
- CCCC(=O)O [Butyric acid] — higher, > 50 µM
- CC/C=C\CCOC(C)=O [Cis-3-hexenyl acetate] — higher, > 50 µM
- CCCCCCC(=O)O [Heptanoic acid] — higher, > 50 µM
- CC12CCC(CC1)C(C)(C)O2 [Eucalyptol] — higher, > 50 µM
- O=Cc1ccccc1 [Benzaldehyde] — higher, > 50 µM
- CCCCCCCCCC=O [Decanal] — higher, > 50 µM
- CCCC/C=C\CCCCCCCCOC(C)=O [(Z)-9-tetradecenyl acetate, (Z)-9-Tetradecenyl acetate] — within 1.5-fold, 11.2 ± 0.55 µM
- OCc1ccccc1 [Benzyl alcohol] — higher, > 50 µM
- C/C=C/C/C=C\CCCCCCCCOC(C)=O [(Z, E)-9,12-tetradecadienyl acetate, (Z,E)-9,12-Tetradecadienyl acetate] — within error, 16.2 ± 0.32 µM
- CCC(=O)O [Propanoic acid] — higher, > 50 µM
- C=C1CC/C=C(\C)CC[C@@H]2[C@@H]1CC2(C)C [Beta-caryophyllene] — higher, > 50 µM
- CC(=O)/C=C/C1=C(C)CCCC1(C)C [Beta-ionone] — higher, > 50 µM
- CCC(C)CC(=O)O (stereo not drawn) [3-methylpentanoic acid] — higher, > 50 µM
- C=CC(=C)CCC=C(C)C [Myrcene] — higher, > 50 µM

Same assay, conditions: 2 μM protein, 2 μM 1-NPN, 30 mM Tris-HCl pH 7.4, 4°C; read-out: IC50

With Farnesene the IC50 was greater than 50 µM.

Same assay, conditions: read-out: IC50

Point of comparison: `CC/C=C/CCCCCCCCCCOC(C)=O` [(E)-11-tetradecenly acetate, (E)-11-Tetradecenyl acetate], IC50 15.2 ± 0.54 µM. Against it:
- COC(=O)c1ccccc1N [Methyl anthranilate] — higher, > 50 µM
- C=CC(C)(O)CCC=C(C)C (racemic) [(±)-Linalool] — higher, > 50 µM

Same assay, conditions: read-out: IC50 (μmol L^-1); 2 μM protein, 2 μM 1-NPN, 30 mM Tris-HCl pH 7.4, 4°C

Work on `C/C=C/C(=O)O` [Crotonic acid] yielded an IC50 greater than 50 µM.
